# In patent US20130040935A1, “CYCLIC KETO-ENOLS FOR THERAPY” (BAYER INTELLECTUAL PROPERTY GMBH, priority 2010, published 2013):
# Where two headings read alike, the source gives them in different places.
# Assays:
# [1] = target: acetyl-CoA carboxylase 2 (ACC2) (Homo sapiens, UniProt O00763); assay: Human ACC2 enzyme assay, Assay A2 (HTRF ADP immunoassay);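 note: ADP generated by ACC2 quantified via competitive time-resolved FRET between europium cryptate anti-ADP antibody and d2-tagged ADP, enzyme kept in linear range near 0.6 ng/µl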
# Sequence of acetyl-CoA carboxylase 2 (ACC2) (O00763 39-2458 limits assumed): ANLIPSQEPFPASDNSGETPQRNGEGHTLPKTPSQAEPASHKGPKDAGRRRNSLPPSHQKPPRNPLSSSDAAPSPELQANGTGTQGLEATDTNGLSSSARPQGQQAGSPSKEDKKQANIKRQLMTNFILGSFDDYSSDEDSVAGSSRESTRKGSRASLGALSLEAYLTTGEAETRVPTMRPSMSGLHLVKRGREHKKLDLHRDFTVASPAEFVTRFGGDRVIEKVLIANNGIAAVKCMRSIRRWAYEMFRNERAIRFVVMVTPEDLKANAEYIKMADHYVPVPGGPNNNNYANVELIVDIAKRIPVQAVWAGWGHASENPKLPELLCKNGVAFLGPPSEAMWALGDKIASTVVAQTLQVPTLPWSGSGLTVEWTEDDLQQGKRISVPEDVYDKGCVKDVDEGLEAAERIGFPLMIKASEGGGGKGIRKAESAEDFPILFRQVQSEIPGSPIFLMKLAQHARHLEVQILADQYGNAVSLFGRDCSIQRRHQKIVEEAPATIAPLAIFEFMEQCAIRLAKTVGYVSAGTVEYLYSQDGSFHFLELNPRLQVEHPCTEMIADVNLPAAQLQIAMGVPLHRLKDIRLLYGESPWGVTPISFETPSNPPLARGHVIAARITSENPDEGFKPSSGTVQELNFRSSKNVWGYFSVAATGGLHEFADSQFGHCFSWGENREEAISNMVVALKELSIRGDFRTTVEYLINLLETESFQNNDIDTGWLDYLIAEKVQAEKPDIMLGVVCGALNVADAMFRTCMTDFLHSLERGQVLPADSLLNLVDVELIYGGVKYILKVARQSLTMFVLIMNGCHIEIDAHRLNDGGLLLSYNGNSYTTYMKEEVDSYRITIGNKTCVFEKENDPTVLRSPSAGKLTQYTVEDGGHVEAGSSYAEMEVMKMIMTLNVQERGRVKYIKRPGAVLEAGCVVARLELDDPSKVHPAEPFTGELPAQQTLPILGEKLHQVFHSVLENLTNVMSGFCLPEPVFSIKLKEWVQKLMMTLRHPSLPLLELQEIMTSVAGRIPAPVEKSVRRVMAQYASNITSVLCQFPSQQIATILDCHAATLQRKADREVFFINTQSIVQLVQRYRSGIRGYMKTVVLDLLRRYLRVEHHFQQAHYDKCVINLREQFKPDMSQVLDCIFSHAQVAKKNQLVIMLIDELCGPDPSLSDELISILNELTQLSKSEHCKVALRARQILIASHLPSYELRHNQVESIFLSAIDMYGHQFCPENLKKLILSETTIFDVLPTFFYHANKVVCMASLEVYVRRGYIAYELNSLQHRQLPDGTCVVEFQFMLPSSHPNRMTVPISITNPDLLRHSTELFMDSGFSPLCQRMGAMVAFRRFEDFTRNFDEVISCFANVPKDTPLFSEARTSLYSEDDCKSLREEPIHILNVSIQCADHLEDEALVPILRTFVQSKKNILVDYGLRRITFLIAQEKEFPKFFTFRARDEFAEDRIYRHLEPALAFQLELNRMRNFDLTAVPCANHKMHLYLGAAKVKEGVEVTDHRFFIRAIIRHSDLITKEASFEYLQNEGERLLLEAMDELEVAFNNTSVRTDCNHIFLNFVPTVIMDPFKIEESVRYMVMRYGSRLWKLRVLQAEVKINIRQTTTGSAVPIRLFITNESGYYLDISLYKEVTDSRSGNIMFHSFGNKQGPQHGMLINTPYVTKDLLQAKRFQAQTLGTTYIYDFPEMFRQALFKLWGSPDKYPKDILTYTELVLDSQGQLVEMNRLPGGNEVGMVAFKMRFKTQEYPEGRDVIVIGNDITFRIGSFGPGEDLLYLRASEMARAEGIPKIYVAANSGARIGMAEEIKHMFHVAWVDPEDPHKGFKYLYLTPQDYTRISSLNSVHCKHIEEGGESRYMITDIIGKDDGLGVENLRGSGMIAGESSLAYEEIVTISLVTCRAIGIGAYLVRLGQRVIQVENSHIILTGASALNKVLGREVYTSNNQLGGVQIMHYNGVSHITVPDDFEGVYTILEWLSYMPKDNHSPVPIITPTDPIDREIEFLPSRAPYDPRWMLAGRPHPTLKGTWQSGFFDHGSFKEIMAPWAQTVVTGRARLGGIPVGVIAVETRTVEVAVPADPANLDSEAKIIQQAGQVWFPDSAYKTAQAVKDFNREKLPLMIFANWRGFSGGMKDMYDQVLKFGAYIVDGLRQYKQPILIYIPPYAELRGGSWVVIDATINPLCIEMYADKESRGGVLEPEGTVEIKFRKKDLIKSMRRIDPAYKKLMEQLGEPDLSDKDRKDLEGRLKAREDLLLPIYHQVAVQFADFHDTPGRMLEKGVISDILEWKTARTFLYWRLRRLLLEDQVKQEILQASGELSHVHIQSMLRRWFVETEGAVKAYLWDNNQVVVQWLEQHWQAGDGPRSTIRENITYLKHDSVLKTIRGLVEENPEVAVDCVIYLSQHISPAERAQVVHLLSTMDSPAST
# [2] = test system: MCF7; assay: Cell proliferation assay (CellTiter-Glo, 96 h), MCF7; assay type: cell-based; conditions: Homo sapiens
# Procedure: In accordance with the invention, the substances were tested in cell-based assays for the ability of the substances of inhibiting tumour cell proliferation after a 96-hour incubation with the substance. Cell viability was tested using the CellTiter-Glo® luminescent cell viability assay (Promega). The cells were sown at a density of 2000-5000 cells/well (depending on the cell line) in 100 μl growth medium on 96-well microtitre plates. For each cell line examined, cells were sown on a separate plate to determine the luminescence at t=0 hours and t=96 hours. After overnight incubation at 37° C., the luminescence values for the t=0 samples were determined. The dose plates for the t=96 hours points in time were treated with substances diluted with growth medium. The cells were then incubated at 37° C. for 96 hours, and the luminescence values for the t=96 hours sample were then determined. For data analysis, the t=0 values were subtracted from the t=96 hour values for treated and untreated samples. The differences in luminescence in percent between substance-treated samples and control values were used to determine the growth inhibition in percent.
# The substances were tested in the following cell lines which represent the stated indications in an exemplary manner: […]
# [3] = target: human ACC2 (acetyl-coenzyme A carboxylase 2) (Homo sapiens, UniProt O00763); assay: Human ACC2 enzyme assay, Assay B2 (ADP-Glo);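 note: human ACC2 activity read as ADP product, detected by luciferase glow luminescence after residual ATP removal, enzyme near 2 ng/µl in linear range, detection steps at 22 °C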
# Sequence of human ACC2 (acetyl-coenzyme A carboxylase 2) (O00763 27-2458 limits assumed): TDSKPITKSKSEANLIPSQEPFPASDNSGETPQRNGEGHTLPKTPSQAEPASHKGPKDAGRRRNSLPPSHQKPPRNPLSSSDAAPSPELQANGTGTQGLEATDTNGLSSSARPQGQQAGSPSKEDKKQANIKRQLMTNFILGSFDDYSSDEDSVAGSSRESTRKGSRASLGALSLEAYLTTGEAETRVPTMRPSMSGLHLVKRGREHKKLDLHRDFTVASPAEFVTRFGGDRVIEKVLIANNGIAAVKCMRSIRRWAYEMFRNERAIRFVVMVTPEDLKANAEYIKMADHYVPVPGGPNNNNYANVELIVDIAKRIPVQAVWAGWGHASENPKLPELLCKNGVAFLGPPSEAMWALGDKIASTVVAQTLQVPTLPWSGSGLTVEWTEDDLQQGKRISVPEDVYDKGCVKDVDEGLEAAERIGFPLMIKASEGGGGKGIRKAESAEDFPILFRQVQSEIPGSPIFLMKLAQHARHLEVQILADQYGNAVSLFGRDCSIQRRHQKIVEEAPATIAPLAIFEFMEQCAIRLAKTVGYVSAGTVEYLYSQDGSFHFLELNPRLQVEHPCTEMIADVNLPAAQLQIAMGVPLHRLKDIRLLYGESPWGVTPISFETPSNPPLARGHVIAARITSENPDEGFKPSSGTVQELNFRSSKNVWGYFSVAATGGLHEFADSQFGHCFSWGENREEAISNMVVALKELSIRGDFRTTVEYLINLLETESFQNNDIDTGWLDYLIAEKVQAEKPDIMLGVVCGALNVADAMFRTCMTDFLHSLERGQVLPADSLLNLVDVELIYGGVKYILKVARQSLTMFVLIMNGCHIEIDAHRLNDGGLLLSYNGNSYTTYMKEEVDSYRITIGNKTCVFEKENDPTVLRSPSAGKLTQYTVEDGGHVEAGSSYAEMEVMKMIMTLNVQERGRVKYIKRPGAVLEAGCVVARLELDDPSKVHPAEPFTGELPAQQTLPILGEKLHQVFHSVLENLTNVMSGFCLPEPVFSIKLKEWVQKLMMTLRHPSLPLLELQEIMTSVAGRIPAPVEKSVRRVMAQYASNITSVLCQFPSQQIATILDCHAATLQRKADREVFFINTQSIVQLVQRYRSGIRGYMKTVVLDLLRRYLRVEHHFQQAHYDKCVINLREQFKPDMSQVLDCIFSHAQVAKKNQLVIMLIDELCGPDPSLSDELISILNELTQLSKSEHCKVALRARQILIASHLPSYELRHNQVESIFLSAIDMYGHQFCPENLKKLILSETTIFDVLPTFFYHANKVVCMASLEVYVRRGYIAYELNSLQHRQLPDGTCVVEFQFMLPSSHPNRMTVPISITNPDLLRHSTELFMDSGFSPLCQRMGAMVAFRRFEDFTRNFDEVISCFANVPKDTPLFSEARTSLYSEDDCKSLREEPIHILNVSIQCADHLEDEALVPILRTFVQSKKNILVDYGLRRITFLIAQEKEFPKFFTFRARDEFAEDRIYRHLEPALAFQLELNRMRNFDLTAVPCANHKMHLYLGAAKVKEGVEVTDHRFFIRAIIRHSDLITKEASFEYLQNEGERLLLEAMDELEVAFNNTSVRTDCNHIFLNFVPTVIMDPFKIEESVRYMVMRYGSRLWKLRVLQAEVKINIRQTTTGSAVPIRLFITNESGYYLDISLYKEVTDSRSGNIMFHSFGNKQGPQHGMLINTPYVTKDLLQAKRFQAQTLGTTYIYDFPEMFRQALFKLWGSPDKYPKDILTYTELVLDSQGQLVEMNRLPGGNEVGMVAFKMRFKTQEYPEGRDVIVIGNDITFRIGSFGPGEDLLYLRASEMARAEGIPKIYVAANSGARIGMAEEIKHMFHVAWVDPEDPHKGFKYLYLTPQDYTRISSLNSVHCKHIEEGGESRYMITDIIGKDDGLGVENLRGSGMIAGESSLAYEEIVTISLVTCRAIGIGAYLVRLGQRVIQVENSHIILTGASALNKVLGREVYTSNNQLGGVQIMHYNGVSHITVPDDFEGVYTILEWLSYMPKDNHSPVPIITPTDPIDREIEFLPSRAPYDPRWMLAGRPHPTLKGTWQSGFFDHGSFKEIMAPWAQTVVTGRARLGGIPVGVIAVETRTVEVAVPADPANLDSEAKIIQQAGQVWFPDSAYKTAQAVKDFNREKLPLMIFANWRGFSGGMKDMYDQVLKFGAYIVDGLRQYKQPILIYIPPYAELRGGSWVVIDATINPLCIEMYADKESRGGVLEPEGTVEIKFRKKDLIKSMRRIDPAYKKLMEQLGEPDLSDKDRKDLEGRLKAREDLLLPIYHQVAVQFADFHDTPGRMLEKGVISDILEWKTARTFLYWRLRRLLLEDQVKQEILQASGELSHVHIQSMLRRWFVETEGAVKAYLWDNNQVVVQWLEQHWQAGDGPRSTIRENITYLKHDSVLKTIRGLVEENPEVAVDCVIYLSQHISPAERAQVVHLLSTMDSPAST
# [4] = target: recombinant human ACC1 (Homo sapiens, UniProt Q13085); assay: Human ACC1 enzyme assay, Assay A1 (HTRF ADP immunoassay);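 note: ADP generated by the enzyme quantified via competitive time-resolved FRET, read as europium cryptate to d2 energy transfer after 1 h at 22 °C with labelled ADP tracer and anti-ADP antibody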
# Procedure: The inhibitory activity of the substances of this invention with regard to acetyl-CoA carboxylase 1 (ACC1) was measured using the ACC1 assay described in the paragraphs below. The basic principle of the assay is the measurement of adenosine diphosphate (ADP), which is formed as a by-product, by means of an HTRF®-based competitive immunoassay (HTRF=Homogeneous Time Resolved Fluorescence).
# Typical concentrations were in the range of 2.5 ng/μl.
# The amount of complex between d2-labelled ADP and europium cryptate-labelled anti-ADP antibody was then determined by measuring the resonance energy transfer from the europium cryptate to d2.
# [5] = target: T1, human ACC1 (acetyl-coenzyme A carboxylase alpha transcript variant 1) (Homo sapiens, UniProt Q13085); assay: Human ACC1 enzyme assay, Assay B1 (ADP-Glo); assay type: biochemical
# T1 construct: FLAG (C); made in house; host or cells: baculovirus-infected insect cells (Hi5)
# [6] = MCF7, Table 7, 96-hour incubation
# [7] = Assay B1, read-out: ACC 1 (=B1) IC50
# [8] = MCF7, Table 9a, 96-hour incubation
"IC50 [5, 7] [nM]","IC50 [2, 8] [nM]",IC50 ([2]; MCF7 cells) [nM],"IC50 ([3]; read-out: ACC 2 (=B2) IC50, Assay B2) [nM]",SMILES,IC50 [1] [nM],"IC50 [2, 6] [nM]",IC50 [3] [nM],IC50 [4] [nM],IC50 [5] [nM]
99,,,,"Cc1cc(F)c(-c2ccc(Cl)c(F)c2)cc1C1=C(O)C2(CCC(C(F)(F)F)CC2)NC1=O (mixture of isomers) [1-94, 3-(4′-Chloro-3′,6-difluoro-4-methylbiphenyl-3-yl)-4-hydroxy-8-(trifluoromethyl)-1-azaspiro[4.5]dec-3-en-2-one]",873,85,2030,73,
,,,,"Cc1cc(F)c(-c2ccc(Cl)cc2)cc1C1=C(O)C2(CCC(C(F)(F)F)CC2)NC1=O (mixture of isomers) [1-100, 3-(4′-Chloro-6-fluoro-4-methylbiphenyl-3-yl)-4-hydroxy-8-(trifluoromethyl)-1-azaspiro[4.5]dec-3-en-2-one]",988,127,2470,91,96
63,,,,"Cc1ccc(-c2ccc(Cl)c(F)c2)cc1C1=C(O)[C@]2(CC[C@H](C(F)(F)F)CC2)NC1=O [1-90, (5s,8s)-3-(4′-Chloro-3′-fluoro-4-methylbiphenyl-3-yl)-4-hydroxy-8-(trifluoromethyl)-1-azaspiro[4.5]dec-3-en-2-one]",331,,595,143,
,,,,"Cc1c(F)cc(-c2ccc(Cl)cc2)cc1C1=C(O)[C@]2(CC[C@H](C(F)(F)F)CC2)NC1=O [1-91, (5s,8s)-3-(4′-Chloro 5 fluoro 4-methylbiphenyl-3-yl)-4-hydroxy-8-(trifluoromethyl)-1-azaspiro[4.5]dec-3-en-2-one]",5010,,4990,302,266
,,,,"O=C1N[C@]2(CC[C@@H](C(F)(F)F)CC2)C(O)=C1c1cc(-c2ccc(Cl)c(F)c2)ccc1Cl [1-92, (5s,8s)-3-(4,4′-Dichloro-3′-fluorobiphenyl-3-yl)-4-hydroxy-8-(trifluoromethyl)-1-azaspiro[4.5]dec-3-en-2-one]",1450,,1660,226,72
,,,,"Cc1ccc(-c2ccc(Cl)c(F)c2)c(C)c1C1=C(O)[C@]2(CC[C@H](C(F)(F)F)CC2)NC1=O [1-93, (5s,8s)-3-(4′-Chloro-3′-fluoro-2,4-dimethylbiphenyl-3-yl)-4-hydroxy-8-(trifluoromethyl)-1-azaspiro[4.5]dec-3-en-2-one]",876,78,4010,301,217
383,,,,"Cc1ccc(-c2ccc(Cl)cc2)c(C)c1C1=C(O)[C@]2(CC[C@H](C(F)(F)F)CC2)NC1=O [1-95, (5s,8s)-3-(4′-Chloro-2,4-dimethylbiphenyl-3-yl)-4-hydroxy-8-(trifluoromethyl)-1-azaspiro[4.5]dec-3-en-2-one]",393,88,2410,378,
238,,,,"Cc1c(F)cc(-c2ccc(F)c(F)c2)cc1C1=C(O)[C@]2(CC[C@H](C(F)(F)F)CC2)NC1=O [1-96, (5s,8s)-4-Hydroxy-8-(trifluoromethyl)-3-(3′,4′,5-trifluoro-4-methylbiphenyl-3-yl)-1-azaspiro[4.5]dec-3-en-2-one]",> 20000,108,> 20000,416,
,,,,"Cc1cc(C)c(-c2ccc(Cl)cc2)cc1C1=C(O)C2(CCC(C(F)(F)F)CC2)NC1=O (stereo not shown) [1-97, 3-(4′-Chloro-4,6-dimethylbiphenyl-3-yl)-4-hydroxy-8 (trifluoromethyl)-1-azaspiro[4.5]dec-3-en-2-one]",138,155,269,1940,1110
,,,,"Cc1cc(C)c(-c2ccc(Cl)cc2)cc1C1=C(O)[C@]2(CC[C@H](C(F)(F)F)CC2)NC1=O [1-98, (5s,8s)-3-(4′-Chloro-4,6-dimethylbiphenyl-3-yl)-4-hydroxy-8-(trifluoromethyl)-1-azaspiro[4.5]dec-3-en-2-one]",204,99,174,2190,1040
,,,,"O=C1N[C@]2(CC[C@@H](C(F)(F)F)CC2)C(O)=C1c1cc(-c2ccc(F)c(F)c2)ccc1Cl [1-99, (5s,8s)-3-(4 Chloro-3′,4′-difluorobiphenyl-3-yl)-4-hydroxy-8-(trifluoromethyl)-1-azaspiro[4.5]dec-3-en-2-one]",6670,120,11300,327,207
,,,,"Cc1ccc(-c2ccc(F)c(F)c2)c(C)c1C1=C(O)[C@]2(CC[C@H](C(F)(F)F)CC2)NC1=O [1-101, (5s,8s)-3-(3′,4′-Difluoro-2,4-dimethylbiphenyl-3-yl)-4-hydroxy-8-(trifluoromethyl)-1-azaspiro[4.5]dec-3-en-2-one]",6070,272,10500,460,650
,,,,"Cc1c(F)cc(-c2ccc(Cl)c(F)c2)cc1C1=C(O)[C@]2(CC[C@H](C(F)(F)F)CC2)NC1=O [1-102, (5s,8s)-3-(4′-Chloro-3′,5-difluoro-4-methylbiphenyl-3-yl)-4-hydroxy-8-(trifluoromethyl)-1-azaspiro[4.5]dec-3-en-2-one]",2950,79,3820,214,243
,,,,"CO[C@H]1CC[C@]2(CC1)NC(=O)C(c1cc(-c3ccc(Cl)c(F)c3)ccc1Cl)=C2O [1-103, (5s,8s)-3-(4,4′-Dichloro-3′-fluorobiphenyl-3-yl)-4-hydroxy-8-methoxy-1-azaspiro[4.5]dec-3-en-2-one]",1180,119,4260,151,102
,,,,"CO[C@H]1CC[C@]2(CC1)NC(=O)C(c1c(C)ccc(-c3ccc(Cl)cc3)c1C)=C2O [1-121, (5s,8s)-3-(4′-Chloro-2,4-dimethylbiphenyl-3-yl)-4-hydroxy-8-methoxy-1-azaspiro[4.5]dec-3-en-2-one]",,233,1010,402,172
,,,,"O=C1NC2(CCCCC2)C(O)=C1c1cc(-c2ccc(Cl)cc2)ccc1Cl [1-140, 3-(4,4′-Dichlorobiphenyl-3-yl)-4-hydroxy-1-azaspiro[4.5]dec-3-en-2-one]",1520,73,,323,
,,,,"Cc1ccc(-c2ccc(F)c(F)c2)cc1C1=C(O)[C@]2(CC[C@H](C)CC2)NC1=O [1-145, (5s,8s)-3-(3′,4′-Difluoro-4-methylbiphenyl-3-yl)-4-hydroxy-8-methyl-1-azaspiro[4.5]dec-3-en-2-one]",3310,273,,194,
1740,974,,,"Cc1cc(C)c(-c2ccc(Cl)cc2)cc1C1=C(O)CC(C)(C)CC1=O [7-3, 2-(4′-chloro-4,6-dimethylbiphenyl-3-yl)-3-hydroxy-5,5-dimethylcyclohex-2-en-1-one]",,,13000,,
7110,2630,,,"Cc1cc(C)c(-c2ccc(Cl)cc2)cc1C1=C(O)C(C)(C)CCC1=O [7-4, 2-(4′-chloro-4,6-dimethylbiphenyl-3-yl)-3-hydroxy-4,4-dimethylcyclohex-2-en-1-one]",,,> 20000,,
11200,,1720,,"Cc1ccc(-c2ccc(Cl)cc2)cc1C1=C(O)C(C)(C)CNC1=O [9-2, 3-(4′-chloro-4-methylbiphenyl-3-yl)-4-hydroxy-5,5-dimethyl-5,6-dihydropyridin-2(1H)-one]",,,> 20000,,
2340,,1530,,"Cc1ccc(-c2ccc(Cl)cc2)cc1C1=C(O)C2(CCCCC2)CNC1=O [9-3, 4-(4′-chloro-4-methylbiphenyl-3-yl)-5-hydroxy-2-azaspiro[5.5]undec-4-en-3-one]",,,> 20000,,
308,,1100,,"Cc1ccc(-c2ccc(Cl)c(Cl)c2)cc1-c1c(O)c2ccc(Cl)cc2[nH]c1=O [9-7, 7-chloro-3-(3′,4′-dichloro-4-methyl-biphenyl-3-yl)-4-hydroxyquinolin-2(1H)-one]",,,11200,,
397,,299,4070,"Cc1ccc(-c2ccc(Cl)cc2)cc1-c1c(O)c2ccc(Cl)cc2[nH]c1=O [9-11, 7-chloro-3-(4′-chloro-4-methylbiphenyl-3-yl)-4-hydroxyquinolin-2(1H)-one]",,,,,
6470,,1460,,"Cc1ccc(-c2ccc(Cl)cc2)cc1C1=C(O)C(C)(C)C(C)(C)NC1=O [9-14, 3-(4′-chloro-4-methylbiphenyl-3-yl)-4-hydroxy-5,5,6,6-tetramethyl-5,6-dihydropyridin-2(1H)-one]",,,> 20000,,
,,,,"CCc1cc(C)cc(Br)c1C1=C(O)C2(CCCCC2)NC1=O [V-4, reference compound]",> 20000,,,5400,
